Values of other authors in patent US20240108682A1, “COMPOSITIONS AND METHODS FOR INCREASING GLUTATHIONE LEVELS” (Lile Method Research, LLC, priority 2022, published 2024).

Conditions: Lu SC, Curr Top Cell Regul 36:95-116 (2000)

## N[C@@H](CCC(=O)N[C@@H](CS)C(=O)NCC(=O)O)C(=O)O [glutathione, L-γ-glutamyl-L-cysteinylglycine]
  half-life of glutathione in the blood: seconds to minutes
